Measurements published in PubChem BioAssay (NCI).
Values joined by “and” are separate entries in the source; they are usually repeats but may differ in a detail not shown here. Equal entries are not always repeated.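 How tested: cells in 96-well plates exposed to compound for 48 hours at five concentrations. The concentration for 50% growth inhibition is given as GI50. TGI is the concentration that stops growth completely.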 Active and inactive are the calls of the source. Cut-off read from the data, not from the text of the source: active = GI50 below about 0.43 µM; inactive = the rest.

Columns and labels:
Test in all cases: inhibition of tumour cell growth, NCI panel, 48 h
RPMI-8226 leukemia = system: RPMI-8226 leukemia
NCI-H226 lung = system: NCI-H226 lung
NCI/ADR-RES ovarian = system: NCI/ADR-RES ovarian
COLO 205 colon = system: COLO 205 colon
MDA-MB-435 = system: MDA-MB-435
NCI-H522 lung = system: NCI-H522 lung
HCT-116 colon = system: HCT-116 colon
K-562 leukemia = system: K-562 leukemia
U251 CNS = system: U251 CNS

Row | Structure (SMILES) | GI50 (RPMI-8226 leukemia) | TGI (RPMI-8226 leukemia) | GI50 (NCI-H226 lung) | TGI (NCI-H226 lung) | GI50 (NCI/ADR-RES ovarian) | outcome (COLO 205 colon) | GI50 (MDA-MB-435) | GI50 (NCI-H522 lung) | TGI (NCI-H522 lung) | GI50 (HCT-116 colon) | GI50 (K-562 leukemia) | GI50 (U251 CNS) | TGI (NCI/ADR-RES ovarian) | GI50 (COLO 205 colon) | TGI (COLO 205 colon) | TGI (MDA-MB-435) | TGI (HCT-116 colon) | TGI (K-562 leukemia) | TGI (U251 CNS)
1 | COC(=O)CCC(=O)C(=O)OC | 17200 µM | 51200 µM | 17300 µM | 65100 µM | 72600 µM | inactive | 62100 µM | 13400 µM | 30500 µM | 30600 µM | 33500 µM | 33400 µM | – | – | – | – | – | – | –
2 | CCCCON(OC(=O)c1ccccc1)C(=O)c1ccccc1 | > 100 µM | > 100 µM | > 100 µM | > 100 µM | > 100 µM | – | > 100 µM | > 100 µM | > 100 µM | > 100 µM | 93.4 µM | > 100 µM | > 100 µM | > 100 µM | > 100 µM | > 100 µM | > 100 µM | > 100 µM | > 100 µM
3 | CC(C)[C@]12O[C@H]1[C@@H]1O[C@]13[C@]1(O[C@H]1C[C@H]1C4=C(CC[C@@]13C)C(=O)OC4)[C@@H]2O | 0.0036 µM and 0.011 µM | 0.0265 µM and 0.0915 µM | < 0.011 µM | 0.0731 µM and 0.12 µM | – | – | 0.0122 µM | 0.0114 µM | 0.157 µM and 0.0366 µM | < 0.01 µM | 0.0151 µM | 0.0379 µM | 0.0922 µM | 0.0117 µM | 0.0219 µM and 0.0366 µM | 0.0214 µM and 0.0296 µM | > 100 µM | > 100 µM | > 100 µM
4 | O=C[C@@H](CO)O[C@H](C=O)c1c[nH]c(=O)[nH]c1=O | – | 672 µM | – | 552 µM | – | – | – | – | 282 µM | – | – | – | 536 µM | – | 1210 µM | 155 µM | 513 µM | 818 µM | 930 µM
5 | CCc1nc(N)nc(N)c1-c1ccc(NCCN)c([N+](=O)[O-])c1 | – | > 88.8 µM | – | > 100 µM | – | – | – | – | > 51.1 µM | – | – | – | > 100 µM | – | 40.4 µM | > 100 µM | > 100 µM | > 100 µM | > 100 µM
6 | C[C@@H]1COCCN1c1cc(C2([S@](C)(=N)=O)CC2)nc(-c2ccnc3[nH]ccc23)n1 | 3.96 µM and 6.76 µM | 47.5 µM and > 10 µM | 4.98 µM and 8.53 µM | 51.3 µM and > 10 µM | 26.2 µM and > 10 µM | – | 3.74 µM and 4.29 µM | 8.61 µM and 4.82 µM | > 84 µM | 4.67 µM and 4.53 µM | 3.76 µM and 2.96 µM | 9.81 µM and 5.08 µM | > 100 µM | 6.18 µM and > 10 µM | 43.1 µM and > 10 µM | 35.7 µM and > 10 µM | > 87.5 µM | > 100 µM | > 100 µM
7 | COc1ccc2oc(=O)cc(C(c3ccc[nH]3)c3ccc[nH]3)c2c1 | 0.376 µM | 3.64 µM | 0.146 µM | 24.4 µM | 0.0651 µM | – | 0.208 µM | 0.348 µM | 5.88 µM | 0.328 µM | 0.118 µM | 0.11 µM | 5.91 µM | 0.221 µM | 0.549 µM | 0.485 µM | 10.6 µM | 20.8 µM | 12.9 µM
8 | COc1ccccc1NC(=O)c1sc2nc3c(cc2c1N)C(=O)CCC3 | > 100 µM | > 100 µM | 4.87 µM | > 100 µM | 7.14 µM | – | 0.295 µM | 0.586 µM | 38.7 µM | 6.29 µM | 1.53 µM | 4.64 µM | > 100 µM | 2.03 µM | > 100 µM | 1.58 µM | > 100 µM | > 100 µM | > 100 µM
9 | Clc1ncnc(Cl)c1Cl | – | > 100 µM | – | > 100 µM | – | – | – | – | > 100 µM | – | – | – | > 100 µM | – | > 100 µM | > 100 µM | > 100 µM | > 100 µM | > 100 µM
10 | O=C(O)CCNc1ccccc1C(=O)O | – | > 100 µM | – | > 100 µM | – | – | – | – | > 100 µM | – | – | – | > 100 µM | – | > 100 µM | > 100 µM | > 100 µM | > 100 µM | > 100 µM
11 | Clc1ccc(CSC(Cn2ccnc2)c2ccc(Cl)cc2Cl)cc1 (centres undefined) | 1.38 µM | 4.49 µM | 1.38 µM | 2.84 µM | 1.46 µM | – | 1.71 µM | 1.13 µM | 2.48 µM | 1.26 µM | 2 µM | 1.39 µM | 3.05 µM | 1.5 µM | 2.83 µM | 3.33 µM | 2.51 µM | 4.81 µM | 2.68 µM
12 | CN(C)CCOc1ccc(-c2nc(-c3ccc4c(c3)CC/C4=N\O)c(-c3ccncc3)[nH]2)cc1 | 5.75 µM and 16.8 µM | 13.7 µM and 77 µM | 4.72 µM and 8.03 µM | 9.77 µM and 17.1 µM | 14.1 µM and 62.7 µM | – | – | 3.9 µM and 5.5 µM | 9.59 µM and 21 µM | 3.29 µM and 1.84 µM | 4.74 µM and 1.95 µM | 4.83 µM and 2.35 µM | 25 µM and > 100 µM | 0.00987 µM and 0.0293 µM | 3.1 µM and 5.06 µM | 5.17 µM and 41.2 µM | 7.8 µM and 6.72 µM | 10.5 µM and 4.2 µM | 9.15 µM and 4.69 µM
13 | CC[C@]12CCCN3CCc4c(n(c5ccccc45)C(=O)C1)[C@@H]32 | – | > 65.1 µM | – | > 100 µM | – | – | – | – | 7.2 µM | – | – | – | > 34.5 µM | – | > 34 µM | 4.41 µM | > 49.6 µM | > 100 µM | > 52.2 µM
14 | COC(=O)[C@@]12C(=O)C=CC(=O)[C@@H]1C1C(=CC2COC(C)=O)O[C@@H]2OC3(CCCCC3)O[C@H]12 (some centres undefined) | – | 22.7 µM | – | 32.4 µM | – | – | – | – | 6.29 µM | – | – | – | 28.7 µM | – | 18.4 µM | 29.8 µM | 15.5 µM | 43.8 µM | 29.2 µM
15 | O=C1C(Cl)=C(Nc2cccc(Cl)c2)C(=O)N1Cc1ccccc1 | 1.37 µM | 7.9 µM | 10.5 µM | 29.3 µM | 6.87 µM | – | 2.26 µM | 14.2 µM | > 100 µM | 3.56 µM | 2.9 µM | 3.98 µM | 24.7 µM | 15.7 µM | > 100 µM | 7.17 µM | 13.3 µM | > 100 µM | 15.5 µM
16 | CC(=O)NCCc1c2c(c3nccc4c3c1Nc1ccccc1-4)OCS2 | 0.895 µM | – | 11.6 µM | 26.5 µM | 4.83 µM | – | 3.88 µM | 0.936 µM | 3.11 µM | 2.22 µM | 2.93 µM | 1.72 µM | > 38.2 µM | 2.38 µM | 15.6 µM | 18.9 µM | – | 56.2 µM | 15.7 µM
